Laboratory results published in patent publication US20160207893A1, “NOVEL CALCIUM MODULATORS” (Myotherix, Inc., priority 2014, published 2016).

Columns and labels:
[1] = tested on: iCell Cardiomyocytes (hIPS cardiomyocytes); experiment: Calcium transient dynamics in cardiomyocytes derived from human stem cells by Kinetic Image Cytometry; format: cell-based
Excerpt: CTD25: Approximates the time elapsed during the first 25% of the transient duration. The measurement assesses the time elapsed from the 75% point of upstroke to the 75% point on the downstroke relative to the peak. Full Width Half Maximum (FWHM): The time elapsed from the 50% point of the upstroke to the 50% point of the down stroke. CTD75: Approximates the time elapsed for 75% of the transient duration. The measurement assesses the time elapsed from the 25% point of upstroke to the 25% point on the down stroke relative to the peak. CTD90: Approximates the time elapsed for 90% of the transient duration. The measurement assesses the time elapsed from the 10% point of upstroke to the 10% point on the down stroke relative to the peak. Decay Time: The time elapsed from the peak to the 50% point of the down stroke T75-25: The time elapsed from the 75% point of the transient maximum to the 25% point of the transient maximum on the down stroke. Beat Rate is assessed by measuring the number of transients observed during the recording period and extrapolating out to the number of expected beats per minute.
Analysis of Test Compounds on Calcium Transient Dynamics in Cardiomyocytes Derived from Human Stem Cells by Kinetic Image Cytometry
Cryopreserved cells (Cellular Dynamics International) were plated onto 96 well tissue culture plates previously coated with Matrigel (250 μg/ml) at a density of 25,000 cells per well, and maintained for two days in plating medium at 37° C. and 7% CO2. After two days in culture, the plating media was replaced with maintenance media and the cells were kept at 37° C. and 7% CO2 with the maintenance media replaced every other day. The cardiomyocytes were maintained in culture for 10 days prior to their use in the assay.
Prior to treatment with the test compounds, the cardiomyocytes were loaded using Fluo-4NW, Hoechst 33342 (200 ng/ml), and 2.5 mM probenecid in the supplied Fluo-4NW assay buffer. Cells were loaded for 1 hour at 37° C.
Test compounds were diluted to their final concentration in Tyrode's solution and brought to 37° C. In addition to standard 2 mM CaCl2 Tyrode's solution, elevated calcium variations using 4 mM and 6 mM CaCl2 were examined in separate test sets.
The hIPS Cardiomyocytes were also prepared for testing with 1 Hz electrical stimulation in standard 2 mM CaCl2 Tyrodes, and test compounds were prepared as described above. […]
Vala Sciences' Kinetic Image Cytometer (KIC™) was used to capture movies of the intracellular calcium transients. The environmental control chamber of the KIC was set to 37° C. and the KIC was fitted with a 20× objective and captured one image of the nuclei (Hoechst), then recorded 10 seconds of spontaneous activity (Fluo-4NW) at 30 fps from each well.

[2] = Plasma stability (incubation in mouse plasma, LC/MS/MS); format: in vitro ADME; details: for Plasma Stability, Time 0 min / Plasma Stability, Time 30 min / Plasma Stability, Time 60 min / Plasma Stability, Time 240 min: 37° C., 20 μM, parent remaining vs 0-min control
Experimental: The assay was carried out in 96-well microtiter plates. Compounds were incubated at 37° C. in the presence of the plasma. Reaction mixtures (50 μL) contained a final concentration of 20 μM test compound. The extent of metabolism was calculated as the disappearance of the test compound, compared to the 0-min control reaction incubations. Eucatropine was included as a positive control to verify assay performance.
At each of the time points, 500 μL of quench solution (100% acetonitrile with 0.1% formic acid) with internal standard was transferred to each well. Plates were sealed, vortexed, and centrifuged at 4° C. for 15 minutes at 4000 rpm. The supernatant was transferred to fresh plates for LC/MS/MS analysis.
All samples were analyzed on LC/MS/MS using an AB Sciex API 4000 instrument, coupled to a Shimadzu LC-20AD LC Pump system. Analytical samples were separated using a Waters Atlantis T3 dC18 reverse phase HPLC column (10 mm×2.1 mm) at a flow rate of 0.5 mL/min. The mobile phase consisted of 0.1% formic acid in water (solvent A) and 0.1% formic acid in 100% acetonitrile (solvent B). Elution conditions are detailed in the table below.

[3] = tested on: human Duchenne muscular dystrophy (hDMD) myoblast cells; experiment: Calcium release, SR calcium leak and SOCE in Fluo-4/AM-loaded hDMD myoblasts (CPA protocol); format: cell-based; details: 30 uM; for Integrated CPA-Induced CaT (area under the curve) (% Reduction in Peak A): CPA in Ca2+-free solution; for % Reduction in Peak CaT after return to 2 mM Ca^2+ (% Reduction in Peak E): SOCE-induced calcium transit
Experimental: Parameters measured are A, the peak CPA-induced calcium transit (F/F0); B, the maximum rate of rise of CPA-induced calcium transit (+ΔF/s); C, the maximum rate of decline of CPA-induced calcium transit (−ΔF/s); D, the integrated CPA-induced calcium transit (F.s); and E, the SOCE-induced calcium transit (F/F0).
Cell Preparation: De-identified telomerized human Duchenne muscular dystrophy (hDMD) myoblast cells were grown under standard cell culture conditions in 35 mm glass bottom petri dishes (MatTek, Ashland, Mass.) specially designed for perfusion and imaging.
Uncoated coverslips were coated with gelatin and hDMD cells seeded at ˜40-60% confluency 24 hours prior to fluorescence experiments.
Step 1. Cell Loading with the Fluorescent Ca^2+ Indicator Fluo-4/AM (Cell Permeant Form): hDMD cells were loaded with 5 μM Fluo-4/AM (Thermo Fisher Scientific) for 45 min at room temperature in the same buffer used for experiments of which composition is described below. After the incubation, the cells are washed twice with the same buffer without the indicator. Fluorescence experiments were initiated after a 30 min incubation in indicator-free buffer to allow for de-esterification of the dye and conversion to its acid active form by endogenous esterases.
Step 2. Fluo-4 Fluorescence Detection: A 35 mm petri dish containing Fluo-4-loaded myoblasts was set on the stage of an inverted Nikon Diaphot 300 epifluorescence microscope equipped with a dual PMT ratiometric fluorimeter system (Model SFX-2, Solamere Technology Group, Salt Lake City, Utah) and optical switch (Model DX-1000, Salt Lake City, Utah), a B/W camera and monitor, a PC computer running on Windows 7 Pro operating system and A/D-D/A data acquisition hardware (Axon Instruments Inc., Digidata 1440 interface) and software (Axon Instruments Inc., Axoscope v. 9.2). During a typical experiment, ca. one third to one half of a cell (field of view narrowed by a manually-controlled diaphragm) is visualized on the B/W TV monitor with an oil immersion 40× Fluor objective (NA=1.3) and defines the area from which epifluorescence intensity will be measured by one of the two PMTs (non-ratiometric measurements). For all experiments, the cells are excited by visible light produced by a 100 W mercury arc lamp centered at 488 nm. Emitted fluorescence at 520 nm is transmitted to the lateral port of the microscope by means of dichroic mirrors and a specific barrier filter located in one of three microscope filter cubes. Before each day of experiments, background fluorescence is cancelled by measuring emitted fluorescence in an unloaded cell. For all cells loaded with Fluo-4/AM, relative fluorescence intensity at 520 nm (filtered at 5 Hz) is normalized to Fluo-4 fluorescence intensity measured in Ca^2+-free medium (F/F0) prior to the addition of 10 μM cyclopiazonic acid (CPA; see protocol description below) to monitor Ca^2+ leakage from the sarcoplasmic reticulum (SR). Free intracellular Ca^2+ concentration is continuously monitored (>20 min; acquisition rate=200 Hz) with no evidence of photobleaching due to low level of excitation light intensity used and sensitivity of the Hamamatsu PMT set to high power.
After mounting the petri dish containing Fluo-4-loaded cells on the microscope stage, cell perfusion with normal physiological salt solutions (PSS) containing 2 mM Ca^2+ was initiated. A myoblast cell was then chosen under normal illumination. Fluo-4 fluorescence intensity recording was then initiated for 2 to 3 minutes to assess the level of loading and stability of the measurement. Once these conditions were met, the solution was switched to Ca^2+-free PSS for 5 min, and then switched for another 5 min to Ca^2+-free PSS containing only vehicle (Control; maximal concentration of 0.1% dimethyl sulfoxide) or vehicle plus drug to be tested (Test). […]

mdx mice [4] = experiment: In vitro force measurement of diaphragm muscle of treated mdx mice; format: in vivo, mouse; details: ca. 60 mg/kg in diet, four weeks of daily treatment (FIG. 8)
Experimental: (§1) mdx C57BL/10 mice (15 mice per group) (Jackson Laboratory; mdx mice stock number 001801; C57BL/10 stock number 000476) were treated with Example 20 formulated in food (347 mg of Example 20 blended into 1 kg of Purina LabDiet Rodent 5001). Based on calculated food consumption, the dose of Example 20 was estimated to be 60 mg/Kg, administered daily in diet for 4 weeks.
Mice were delivered at 4 weeks of age, and acclimatized for an additional seven days prior to initiation of the study. All animals were weighed, and grouped into different treatment groups based on body weight. Each group received an appropriate daily dosage of Example 20 or vehicle. Age and sex-matched C57BL/10 (vehicle) were used as controls. Exposure levels of Example 1 (the metabolism product of Example 20) in mouse plasma was measured in a separate 5-day pharmacokinetic study in mdx mice prior to the initiation of the 4-week study. Plasma samples were also taken at the termination of the 4-week study for pharmacokinetic assessment in which exposure leves of Example 1 were again measured (the results are set out below). The functional measurements (grip strength measurement and exhaustion assay) were performed after treatment. At the end of the trial, the extensor digitorum longus muscle (EDL) and diaphragm in vitro force measurements were taken, and dissection of the mice was performed to collect tissues. […]

mdx mice [5] = experiment: Histology (H&E): muscle regeneration and markers of inflammation in treated mdx mice; format: in vivo, mouse; details: 4-weeks treatment
Experimental: as §1
Mice were delivered at 4 weeks of age, and acclimatized for an additional seven days prior to initiation of the study. All animals were weighed, and grouped into different treatment groups based on body weight. Each group received an appropriate daily dosage of Example 20 or vehicle. Age and sex-matched C57BL/10 (vehicle) were used as controls. Exposure levels of Example 1 (the metabolism product of Example 20) in mouse plasma was measured in a separate 5-day pharmacokinetic study in mdx mice prior to the initiation of the 4-week study. Plasma samples were also taken at the termination of the 4-week study for pharmacokinetic assessment in which exposure leves of Example 1 were again measured (the results are set out below). The functional measurements (grip strength measurement and exhaustion assay) were performed after treatment. At the end of the trial, the extensor digitorum longus muscle (EDL) and diaphragm in vitro force measurements were taken, and dissection of the mice was performed to collect tissues. Histology evaluation (H&E) was performed on the frozen sections of the diaphragm and gastrocnemius muscles for each group.
Diaphragm and gastrocnemius muscles of untreated and drug-treated mice were isolated and included in Killik frozen section medium, frozen and cut into 8-μm thick sections with the muscle fibers oriented transversely using a cryostat. Sections were stained with Hematoxylin & Eosin to evaluate markers of inflammation, muscle degeneration and regeneration and percentage central nuclei according to Grounds (TREAT NMD SOP protocol DMD_M.1.2.007, Quantification of histopathology in Haemotoxylin and Eosin stained muscle sections).

SMILES: COC(=O)C1=C(C)NC(C)=C([N+](=O)[O-])C1c1ccccc1C(F)(F)F (stereo not shown) [Bay K8644, reference compound]
- CTD75 relative to vehicle control ([1]; reference compounds at 1 uM, under each experimental condition, 0.1% DMSO vehicle): ≥ 125 % of vehicle control

SMILES: CC1CC(OC(=O)C(O)c2ccccc2)CC(C)(C)N1C (stereo not shown) [Eucatropine, reference compound]
- Plasma Stability, Time 0 min [2]: 100.0%
- Plasma Stability, Time 30 min [2]: 90.0%
- Plasma Stability, Time 60 min [2]: 67.4%
- Plasma Stability, Time 240 min [2]: 41.0%

SMILES: [2H]C(c1ccc(C(=O)O)cc1)N1CCSc2ccc(OC)cc2C1([2H])[2H] (stereo not shown) [Example 1, 4-((5,5-Dideutero-7-methoxy-2,3-dihydrobenzo[f][1,4]thiazepin-4(5H)-yl)deuteromethyl)benzoic acid]
- plasma stability after 2-hours of incubation in plasma ([2]; 2-hours of incubation): unchanged
- Plasma Stability, Time 0 min [2]: 100.0%
- Plasma Stability, Time 30 min [2]: 111.2%
- Plasma Stability, Time 60 min [2]: 99.8%
- Plasma Stability, Time 240 min [2]: 102.1%

SMILES: COc1cc2c(cn1)SCCN(Cc1ccc(C(=O)O)cc1)C2 [Example 2, 4-((7-Methoxy-2,3-dihydropyrido[4,3-f][1,4]thiazepin-4(5H)-yl)methyl)benzoic acid]
- Integrated CPA-Induced CaT (area under the curve) (% Reduction in Peak A) [3]: 43.3%
- % Reduction in Peak CaT after return to 2 mM Ca^2+ (% Reduction in Peak E) [3]: 41.4%
- CTD75 shortened to % of control ([1]; 10 uM, 30 uM (FIG. 5)): 79 % of control
- triangulation T75-25 reduced to % of control ([1]; 10 uM, 30 uM (FIG. 5)): 71 % of control
- effect on proarrhythmia and calcium transient ([1]; 10 uM, 30 uM, spontaneously beating cells in 4 mM calcium Tyrode's solution (FIG. 4)): dose-related reduction of proarrhythmia and calcium transient shortening

SMILES: COc1ccc2c(n1)CN(Cc1ccc(C(=O)O)cc1)CCS2 [Example 9, 4-((7-Methoxy-2,3-dihydropyrido[2,3-f][1,4]thiazepin-4(5H)-yl)methyl)benzoic acid]
- Integrated CPA-Induced CaT (area under the curve) (% Reduction in Peak A) [3]: 19.4%
- % Reduction in Peak CaT after return to 2 mM Ca^2+ (% Reduction in Peak E) [3]: 40.7%

SMILES: COc1cnc2c(c1)CN(Cc1ccc(C(=O)O)cc1)CCS2 [Example 13, 4-((7-Methoxy-2,3-dihydropyrido[3,2-f][1,4]thiazepin-4(5H)-yl)methyl)benzoic acid]
- Integrated CPA-Induced CaT (area under the curve) (% Reduction in Peak A) [3]: 25.9%
- % Reduction in Peak CaT after return to 2 mM Ca^2+ (% Reduction in Peak E) [3]: 80.8%

SMILES: COc1ncc2c(n1)CN(Cc1ccc(C(=O)O)cc1)CCS2 [Example 17, 4-((2-Methoxy-6,7-dihydropyrimido[4,5-f][1,4]thiazepin-8(9H)-yl)methyl)benzoic acid]
- Integrated CPA-Induced CaT (area under the curve) (% Reduction in Peak A) [3]: 23.0%
- % Reduction in Peak CaT after return to 2 mM Ca^2+ (% Reduction in Peak E) [3]: 21%

SMILES: [2H]C(c1ccc(C(=O)OCCCCO[N+](=O)[O-])cc1)N1CCSc2ccc(OC)cc2C1([2H])[2H] (stereo not shown) [Example 20]
- maximal force in the diaphragm (mdx mice [4]): significant improvement
- specific force in the diaphragm (mdx mice [4]): significant improvement
- Plasma Stability, Time 0 min [2]: 100.0%
- Plasma Stability, Time 60 min [2]: 0.6%
- Plasma Stability, Time 240 min [2]: 0.3%
- increase in regenerating fibers/mm^2 in the diaphragm (mdx mice [5]): > 25%
- increase in regenerating fibers/mm^2 in the gastrocnemius muscle (mdx mice [5]): > 50%
- reduction in inflammatory foci/mm^2 in the gastrocnemius muscle (mdx mice [5]): > 30%

SMILES: COc1ccc2c(c1)CN(C)CCS2 [Example S107, reference compound]
- Integrated CPA-Induced CaT (area under the curve) (% Reduction in Peak A) [3]: 74.1%
- % Reduction in Peak CaT after return to 2 mM Ca^2+ (% Reduction in Peak E) [3]: 52.8%
